Among the data in BindingDB's records for patent US12215173 (Humanwell Pharmaceutical US, 2025) are IC50 values, retold here.

Holding throughout (assay): Opioid Receptor Binding Assay
The target of assay [1] is Kappa-type opioid receptor (Homo sapiens, UniProt P41145).
A further assay addresses Mu-type opioid receptor (Homo sapiens, UniProt P35372).
Assay [2] addresses Delta-type opioid receptor (Homo sapiens, UniProt P41143).

What is called IC50 is the concentration needed to halve the response being measured. The low end stands for greater potency, the high end for weaker potency.

SMILES strings stand for the structures. Square brackets hold non-standard residues; d marks the D form. Peptide text beside a SMILES is read from it. * marks the point of attachment. Pyrrolidino(3-NH2-3-COOH) = NC1(C(=O)O)CCN(*)C1; dTic = O=C(O)[C@H]1Cc2ccccc2CN1

Sequence of Mu-type opioid receptor (P35372 whole entry): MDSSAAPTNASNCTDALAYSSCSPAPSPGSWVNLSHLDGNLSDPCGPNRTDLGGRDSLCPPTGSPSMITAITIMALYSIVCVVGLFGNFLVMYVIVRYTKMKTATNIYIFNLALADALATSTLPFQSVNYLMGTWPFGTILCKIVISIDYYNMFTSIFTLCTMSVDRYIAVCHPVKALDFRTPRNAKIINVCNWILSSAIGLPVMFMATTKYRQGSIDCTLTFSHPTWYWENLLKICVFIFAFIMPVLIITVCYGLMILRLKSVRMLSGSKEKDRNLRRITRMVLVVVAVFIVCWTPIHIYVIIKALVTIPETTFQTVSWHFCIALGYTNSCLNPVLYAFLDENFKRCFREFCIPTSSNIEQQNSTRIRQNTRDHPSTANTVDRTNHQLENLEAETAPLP
Sequence of Kappa-type opioid receptor (P41145 whole entry): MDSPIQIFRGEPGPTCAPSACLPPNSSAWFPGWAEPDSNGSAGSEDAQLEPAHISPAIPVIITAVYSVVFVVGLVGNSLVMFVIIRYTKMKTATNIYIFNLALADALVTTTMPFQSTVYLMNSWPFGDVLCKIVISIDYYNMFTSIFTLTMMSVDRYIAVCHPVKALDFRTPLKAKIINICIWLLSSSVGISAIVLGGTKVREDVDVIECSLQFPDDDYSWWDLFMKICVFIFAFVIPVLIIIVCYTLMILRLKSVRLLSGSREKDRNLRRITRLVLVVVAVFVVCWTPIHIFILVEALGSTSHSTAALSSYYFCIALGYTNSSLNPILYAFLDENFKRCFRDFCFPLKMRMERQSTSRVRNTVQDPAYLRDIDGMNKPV
Sequence of Delta-type opioid receptor (P41143 whole entry): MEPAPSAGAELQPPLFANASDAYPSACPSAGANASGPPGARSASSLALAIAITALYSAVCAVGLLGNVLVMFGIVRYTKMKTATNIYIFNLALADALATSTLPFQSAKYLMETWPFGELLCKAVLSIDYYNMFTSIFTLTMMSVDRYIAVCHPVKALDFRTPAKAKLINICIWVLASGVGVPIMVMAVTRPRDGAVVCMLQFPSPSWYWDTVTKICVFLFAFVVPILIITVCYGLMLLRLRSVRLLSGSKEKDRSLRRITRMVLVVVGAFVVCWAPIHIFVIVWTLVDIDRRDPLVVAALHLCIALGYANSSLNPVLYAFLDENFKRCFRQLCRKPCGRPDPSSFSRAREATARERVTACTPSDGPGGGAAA

Consider `CC(C)C[C@@H](NC(=O)[C@@H](Cc1ccccc1)NC(=O)[C@H](N)Cc1ccccc1)C(=O)N[C@H](CCCCN)C(=O)NCc1cccc(C(=O)O)n1` [US12215173, Compound 13-6], for which the IC50 in assay [1] is 0.00945 µM; at Mu-type opioid receptor, over 10 µM; in assay [2], over 10 µM.

For the compound `CC(C)C[C@@H](NC(=O)[C@@H](Cc1ccccc1)NC(=O)[C@H](N)Cc1ccccc1)C(=O)N[C@H](CCCCN)C(=O)NCCC[C@H](N)C(=O)O` [US12215173, Compound 13-44], the IC50 in assay [1] was 0.00046 µM; at Mu-type opioid receptor it was over 10 µM; in assay [2] it was over 10 µM.

As for `CC(C)C[C@@H](NC(=O)[C@@H](Cc1ccccc1)NC(=O)[C@H](N)Cc1ccccc1)C(=O)N[C@H](CCCCN)C(=O)N1CCC(O)(CO)CC1` [US12215173, Compound 13-65], the IC50 in assay [1] is 0.00045 µM; at Mu-type opioid receptor, over 10 µM; in assay [2], over 10 µM.

Consider `COC(=O)C1(N)CCN(C(=O)[C@@H](CCCCN)NC(=O)[C@H](NC(=O)[C@@H](Cc2ccccc2)NC(=O)[C@H](N)Cc2ccccc2)C(C)(C)C)CC1` [US12215173, Compound 100], for which the IC50 is 0.013 µM in assay [1], over 10 µM on Mu-type opioid receptor and over 10 µM in assay [2].

Regarding `COC(=O)C1(N)CCN(C(=O)[C@@H](CCCCN)NC(=O)[C@H](NC(=O)[C@@H](Cc2ccccc2)NC(=O)[C@H](N)Cc2ccccc2)C(C)(C)C)C1` (stereo partly specified) [US12215173, Compound 103], the IC50 in assay [1] is 0.0144 µM; at Mu-type opioid receptor, over 10 µM; in assay [2], over 10 µM.

Consider `CC(C)C[C@@H](NC(=O)[C@@H](Cc1ccccc1)NC(=O)[C@H]1Cc2ccccc2CN1)C(=O)N[C@H](CCCCN)C(=O)N1CCC(N)(C(=O)O)C1` (stereo partly drawn) [US12215173, Compound 169] (H-[dTic][dF][dL][dK]-{Pyrrolidino(3-NH2-3-COOH)}), for which the IC50 in assay [1] is 0.0888 µM.

As for `COC(=O)C1(N)CCN(C(=O)[C@@H](CCCCN)NC(=O)[C@@H](CC(C)C)NC(=O)[C@@H](Cc2ccccc2)NC(=O)[C@H]2Cc3ccccc3CN2)CC1` [US12215173, Compound 171], the IC50 in assay [1] is 0.00083 µM; on Mu-type opioid receptor, over 10 µM; in assay [2], over 10 µM.

As for `CC(C)C[C@@H](NC(=O)[C@@H](Cc1ccccc1)NC(=O)[C@H]1Cc2ccccc2CN1)C(=O)N[C@H](CCCCN)C(=O)N1CCC(N)(C(=O)O)CC1` [US12215173, Compound 172], the IC50 in assay [1] is 0.00402 µM; on Mu-type opioid receptor, over 10 µM; in assay [2], over 10 µM.

As for `COC(=O)C1(N)CCN(C(=O)[C@@H](CCCCN)NC(=O)[C@@H](CC(C)C)NC(=O)[C@@H](Cc2ccccc2)NC(=O)[C@H](N)Cc2ccc(F)cc2)C1` (stereo partly specified) [US12215173, Compound 181], the IC50 in assay [1] is 0.0004 µM; at Mu-type opioid receptor it was over 10 µM; in assay [2] it was over 10 µM.

Regarding `COC(=O)C1(N)CCN(C(=O)[C@@H](CCCCN)NC(=O)[C@@H](CC(C)C)NC(=O)[C@@H](Cc2ccccc2)NC(=O)[C@H](N)Cc2ccc(F)cc2)CC1` [US12215173, Compound 184], the IC50 is 0.00025 µM in assay [1], 8.09 µM at Mu-type opioid receptor and over 10 µM in assay [2].

In the case of `COC(=O)C1(N)CCN(C(=O)[C@@H](CCCCN)NC(=O)[C@@H](CC(C)C)NC(=O)[C@@H](Cc2ccccc2)NC(=O)[C@H](N)Cc2ccc(C(F)(F)F)cc2)C1` (stereo partly specified) [US12215173, Compound 194], the IC50 in assay [1] is 0.00407 µM; on Mu-type opioid receptor it was 7.34 µM; in assay [2], over 10 µM.
